Experimental data: US11613547B2 (priority 2019, dated 2023)
Where “and” joins values, the source holds several entries; their conditions need not be identical. Equal entries are not always repeated. Where two headings read alike, the source gives them in different places.

Columns and labels:
[1] = molecular target: T1, rat kappa opioid receptor (rKOR) (Rattus norvegicus, UniProt P34975); experiment: BRET assay, arrestin recruitment, rKOR; format: cell-based; conditions: for Arrestin pEC50±SEM rKOR / EC50 / Arrestin Emax rKOR: BRET; for Arrestin Emax rKOR: normalized to Emax of U50,488H
T1 construct: expressed in transfected cells; host or cells: HEK-293T, transient (PEI), with BRET sensor cDNAs

[2] = molecular target: T2, hKOR (Homo sapiens, UniProt P41145); experiment: cAMP inhibition assay (GloSensor, HEK 293T), hKOR; format: cell-based; conditions: for Bias factor toward G protein, hKOR: cAMP inhibition vs Tango, against U50,488H as control; for Gi Emax hKOR / Gi pEC50±SEM hKOR / EC50: cAMP inhibition; for Gi Emax hKOR: normalized to Emax of U50,488H; for EC50: read-out: Gi EC50 hKOR
T2 construct: expressed in transfected cells; host or cells: HEK 293T (ATCC CRL-11268), transient

[3] = molecular target: T3, hMOR (Homo sapiens, UniProt P35372); experiment: Tango β-arrestin recruitment assay, hMOR; format: cell-based; conditions: for Arrestin pEC50±SEM hMOR / EC50 / Arrestin Emax hMOR: Tango; for Arrestin Emax hMOR: normalized to Emax of DAMGO
T3 construct: expressed in transfected cells; host or cells: HEK 293T (ATCC CRL-11268), transient

[4] = molecular target: T4, mKOR (Mus musculus, UniProt P33534); experiment: Radioligand competition binding ([125I]IBNtxA), CHO membranes, mKOR; conditions: vs 125IBNtxA (0.1 nM), mean ± SEM
T4 construct: expressed in transfected cells

[5] = molecular target: T5, mouse mu opioid receptor (mMOR) (Mus musculus, UniProt P42866); experiment: cell-based; format: cell-based; conditions: for EC50: read-out: Gi EC50 mMOR
T5 construct: expressed in transfected cells; host or cells: HEK-293T, transient (PEI), with BRET sensor cDNAs

[6] = molecular target: T2, hKOR; experiment: Tango β-arrestin recruitment assay, hKOR; format: cell-based; conditions: for Arrestin pEC50±SEM hKOR / EC50 / Arrestin Emax hKOR: Tango; for Arrestin pEC50±SEM hKOR / EC50: WT-hKOR; for Arrestin Emax hKOR: normalized to Emax of U50,488H
[7] = molecular target: T6, hDOR (Homo sapiens, UniProt P41143); experiment: cAMP inhibition assay, hDOR; format: cell-based; parameters: expressed in transfected cells; conditions: for EC50 / cAMP inhibition pEC50 ± SEM / cAMP inhibition Emax % ± SEM: hDOR; for cAMP inhibition Emax % ± SEM: normalized to DPDPE or DADLE
[8] = molecular target: T3, hMOR; experiment: cell-based; format: cell-based; conditions: for EC50: read-out: Gi EC50 hMOR
[9] = molecular target: T4, mKOR; experiment: [35S]GTPγS functional assay, mKOR; format: biochemical; conditions: for EC50 / mKOR Emax: [35S]GTPγS; for EC50: nM ± SEM; for mKOR Emax: relative to U50,488H
[10] = molecular target: T7, mDOR (Mus musculus, UniProt P32300); experiment: Radioligand competition binding ([125I]IBNtxA), CHO membranes, mDOR; conditions: vs 125IBNtxA (0.1 nM), CHO membranes, mean ± SEM
T7 construct: expressed in transfected cells

[11] = molecular target: T6, hDOR; experiment: Tango β-arrestin recruitment assay, hDOR; format: cell-based; parameters: expressed in transfected cells; host or cells: HTLA cells expressing TEV fused-beta-Arrestin2; conditions: for Arrestin recruitment pEC50 ± SEM / EC50 / Arrestin recruitment Emax % ± SEM: hDOR, Tango; for Arrestin recruitment Emax % ± SEM: normalized to DPDPE or DADLE
[12] = molecular target: T8, mMOR (Mus musculus, UniProt P42866); experiment: Radioligand competition binding ([125I]IBNtxA), CHO membranes, mMOR; conditions: vs 125IBNtxA (0.1 nM), mean ± SEM
T8 construct: expressed in transfected cells

[13] = molecular target: T1, rat kappa opioid receptor (rKOR); experiment: BRET assay, G-protein activation, rKOR; format: cell-based; conditions: for Gi pEC50±SEM rKOR / Gi Emax rKOR / EC50: BRET; for Bias factor toward G-protein, rKOR: BRET assays, against U50,488H as control; for Gi Emax rKOR: normalized to Emax of U50,488H; for EC50: read-out: Gi EC50 rKOR
[14] = molecular target: T9, mouse delta opioid receptor (mDOR) (Mus musculus, UniProt P32300); experiment: BRET assay, G-protein activation, mDOR; format: cell-based; conditions: for EC50 / G-Protein activation pEC50 ± SEM / G-Protein activation Emax % ± SEM: mDOR, BRET; for G-Protein activation Emax % ± SEM: normalized to DPDPE
T9 construct: expressed in transfected cells; host or cells: HEK-293T, transient (PEI), with BRET sensor cDNAs

[15] = molecular target: T9, mouse delta opioid receptor (mDOR); experiment: BRET assay, arrestin recruitment, mDOR; format: cell-based; conditions: for Arrestin recruitment pEC50 ± SEM / EC50 / Arrestin recruitment Emax % ± SEM: mDOR, BRET; for Arrestin recruitment Emax % ± SEM: normalized to DPDPE
[16] = molecular target: T7, mDOR; experiment: [35S]GTPγS functional assay, mDOR; format: biochemical; conditions: for EC50 / mDOR Emax: [35S]GTPγS; for EC50: nM ± SEM; for mDOR Emax: relative to DPDPE
[17] = molecular target: T5, mouse mu opioid receptor (mMOR); experiment: cell-based; format: cell-based; conditions: for EC50: read-out: Arrestin EC50 mMOR
[18] = molecular target: T8, mMOR; experiment: [35S]GTPγS functional assay, mMOR; format: biochemical; conditions: for EC50 / mMOR Emax: [35S]GTPγS; for EC50: nM ± SEM; for mMOR Emax: relative to DAMGO
[19] = read-out: Arrestin recruitment Emax % ± SEM

O=C(N[C@@H]1CC[C@@]2(O)[C@H]3Cc4ccc(O)c5c4[C@@]2(CCN3CC2CC2)[C@H]1O5)c1cccc(I)c1 [IBNtxA, reference compound]
Arrestin pEC50±SEM rKOR [1]: 8.9±0.02 | EC50 [1]: 1.23 nM | Arrestin Emax rKOR [1]: 133±7.3 | Bias factor toward G protein, hKOR [2]: 0.2 | Gi Emax hKOR [2]: 106±0.7 | Arrestin pEC50±SEM hMOR [3]: 8.2±0.002 | EC50 [3]: 5.86 nM | Arrestin Emax hMOR [3]: 29±0.02 | Ki [4]: 0.03 ± 0.001 nM | Bias factor toward G-protein, mMOR [5]: 404 | Gi Emax mMOR [5]: 59±2.2 | Gi pEC50±SEM mMOR [5]: 10.3±0.02 | EC50 [5]: 0.054 nM | Arrestin pEC50±SEM hKOR [6]: 10.9±0.07 | EC50 [6]: 0.013 nM | Arrestin Emax hKOR [6]: 109±1.8 | EC50 [7]: 0.43 nM | cAMP inhibition pEC50 ± SEM [7]: 9.3 ± 0.03 | cAMP inhibition Emax % ± SEM [7]: 106 ± 1% | Bias factor toward G protein, hMOR [8]: 23 | Gi Emax hMOR [8]: 95±2 | Gi pEC50±SEM hMOR [8]: 10.2±0.006 | EC50 [8]: 0.07 nM | EC50 [9]: 0.22 ± 0.02 nM | mKOR Emax [9]: 102 ± 4% | Ki [10]: 0.24 ± 0.05 nM | Arrestin recruitment pEC50 ± SEM [11]: 7.8 ± 0.06 | EC50 [11]: 14.1 nM | Arrestin recruitment Emax % ± SEM [11]: 224 ± 5% | Ki [12]: 0.11 ± 0.02 nM | Gi pEC50±SEM rKOR [13]: 10.2±0.1 | Bias factor toward G-protein, rKOR [13]: 0.6 | Gi Emax rKOR [13]: 101±2.3 | EC50 [13]: 0.064 nM | EC50 [14]: 0.48 nM | G-Protein activation pEC50 ± SEM [14]: 9.3 ± 0.10 | G-Protein activation Emax % ± SEM [14]: 108 ± 3.7% | Arrestin recruitment pEC50 ± SEM [15]: 7.5 ± 0.2 | EC50 [15]: 26.6 nM | Arrestin recruitment Emax % ± SEM [15]: 88 ± 6.8% | EC50 [16]: 4.08 ± 0.67 nM | mDOR Emax [16]: 95 ± 2% | Arrestin Emax mMOR [17]: 75±13.9 | Arrestin pEC50±SEM mMOR [17]: 4.9±0.3 | EC50 [17]: 11300 nM | EC50 [18]: 0.49 ± 0.12 nM | mMOR Emax [18]: 101 ± 3%

O=C(N[C@@H]1C=CC2[C@H]3Cc4ccc(O)c5c4[C@@]2(CCN3CC2CC2)[C@H]1O5)c1cccc(I)c1 (stereo partly drawn) [MP1104, reference compound]
Arrestin pEC50±SEM rKOR [1]: 8.94±0.07 | EC50 [1]: 1.14 nM | Arrestin Emax rKOR [1]: 89±2.6 | Gi pEC50±SEM hKOR [2]: 11.74±0.04 | Bias factor toward G protein, hKOR [2]: 0.18 and 0.2 | Gi Emax hKOR [2]: 107±1 | EC50 [2]: 0.00184 nM | Arrestin pEC50±SEM hMOR [3]: 9.24±0.08 | EC50 [3]: 0.573 nM | Arrestin Emax hMOR [3]: 90±2.28 | Ki [4]: 0.0064 nM | Bias factor toward G-protein, mMOR [5]: 0.1 | Gi Emax mMOR [5]: 62±2 | Gi pEC50±SEM mMOR [5]: 9.2±0.11 | EC50 [5]: 0.66 nM | Arrestin pEC50±SEM hKOR [6]: 10.4±0.06 | EC50 [6]: 0.0394 nM | Arrestin Emax hKOR [6]: 117±2 | EC50 [7]: 0.4 nM | cAMP inhibition pEC50 ± SEM [7]: 9.4 ± 0.04 | cAMP inhibition Emax % ± SEM [7]: 99 ± 1.1% | Bias factor toward G protein, hMOR [8]: 0.57 and 0.6 | Gi Emax hMOR [8]: 94±1 | Gi pEC50±SEM hMOR [8]: 10.13±0.05 | EC50 [8]: 0.074 nM | EC50 [9]: 0.027 ± 0.002 nM | mKOR Emax [9]: 104 ± 2% | Ki [10]: 0.08 ± 0.01 nM | Arrestin recruitment pEC50 ± SEM [11]: 8.4 ± 0.06 | EC50 [11]: 3.73 nM | Arrestin recruitment Emax % ± SEM [11]: 189 ± 5.5% | Ki [12]: 0.021 nM | Gi pEC50±SEM rKOR [13]: 10.14±0.04 | Bias factor toward G-protein, rKOR [13]: 0.23 | Gi Emax rKOR [13]: 93±1 | EC50 [13]: 0.073 nM | EC50 [14]: 1.4 nM | G-Protein activation pEC50 ± SEM [14]: 8.9 ± 0.06 | G-Protein activation Emax % ± SEM [14]: 91 ± 1.7% | Arrestin recruitment pEC50 ± SEM [15]: 7.6 ± 0.11 | EC50 [15]: 26 nM | Arrestin recruitment Emax % ± SEM [15]: 40 ± 1.7% | EC50 [16]: 0.41 ± 0.11 nM | mDOR Emax [16]: 88 ± 0% | Arrestin Emax mMOR [17]: 53±1.6 | Arrestin pEC50±SEM mMOR [17]: 9.55±0.12 | EC50 [17]: 0.285 nM | EC50 [18]: 0.21 ± 0.03 nM | mMOR Emax [18]: 103 ± 2%

O=C(N[C@@H]1CC[C@@]2(O)C3Cc4ccc(O)cc4[C@@]2(CCN3CC2CC2)C1)c1cccc(I)c1 [MP1601, N-((4bR,6R,8aS)-11-(Cyclopropylmethyl)-3,8a-dihydroxy-6,7,8,8a,9,10-hexahydro-5H-9,4b-(epiminoethano)phenanthren-6-yl)-3-iodobenzamide]
Emax [1]: 37 ± 3% | Arrestin pEC50±SEM rKOR [1]: 7.2±0.23 | EC50 [1]: 56.5 nM | Emax ([2]; HEK-293T, read-out: Gi Emax hKOR): 109 ± 1% | Gi pEC50±SEM hKOR [2]: 9.76±0.05 | Bias factor toward G protein, hKOR [2]: 0.15 | EC50 [2]: 0.17 nM | Emax [3]: 27 ± 2% | Arrestin pEC50±SEM hMOR [3]: 8.4±0.2 | Ki [4]: 2.13 ± 0.3 nM | Gi pEC50±SEM mMOR [5]: 8.6±0.3 | EC50 [5]: 2.2 nM | Emax ([5]; read-out: Gi Emax mMOR): 49 ± 3% | Emax [6]: 107 ± 3% | Arrestin pEC50±SEM hKOR [6]: 8.49±0.07 | EC50 [7]: 2.76 nM | cAMP inhibition pEC50 ± SEM [7]: 8.6 ± 0.06 | Emax ([7]; read-out: cAMP inhibition Emax % ± SEM): 106 ± 2.3% | Bias factor toward G protein, hMOR [8]: 4 | Gi pEC50±SEM hMOR [8]: 9.99±0.09 | Emax ([8]; HEK-293T, read-out: Gi Emax hMOR): 69 ± 1% | EC50 [8]: 0.1 nM | Emax [9]: 72 ± 4.5% | EC50 [9]: 3 ± 0.7 nM | Ki [10]: 5.37 ± 0.9 nM | Arrestin recruitment pEC50 ± SEM [11]: 7.1 ± 0.06 | EC50 [11]: 86.7 nM | Emax [11, 19]: 203 ± 5.4% | Ki [12]: 0.2 ± 0.01 nM | Gi pEC50±SEM rKOR [13]: 8.1±0.12 | Bias factor toward G-protein, rKOR [13]: 0.9 | EC50 [13]: 8.9 nM | Emax ([13]; read-out: Gi Emax rKOR): 75 ± 3% | G-Protein activation pEC50 ± SEM [14]: 8.2 ± 0.20 | Emax ([14]; read-out: G-Protein activation Emax % ± SEM): 105 ± 6.7% | EC50 [15]: 9 nM | Emax [15, 19]: 16 ± 1.4% | Emax [16]: 67 ± 3.9% | EC50 [16]: 10 ± 1.6 nM | arrestin recruitment at mMOR [17]: no arrestin recruitment was observed | Emax [18]: 45 ± 4.6% | EC50 [18]: 0.5 ± 0.2 nM
